From article PMC11394972 (International Journal of Molecular Sciences, 2024)

System: MazF-mt3(Δ16–22)
Assay type: biochemical, Mycobacterium tuberculosis
Conditions: FAM-labeled 13-nt RNA substrate; Figure 4B, Figure S9

## MazE-mt3 α3–α4: peptide corresponding to the last two helices (α3-α4, Leu46-Trp82) of MazE-mt3; cocrystallized with MazF-mt3 (PDB 8ZWS) (LTGQIDRALESIHGTDEAEALAVANAYRVLETMDDEW)
  inhibitory effect against the loop-truncated MazF-mt3 enzyme compared with the full-length antitoxin: strong inhibitory effect comparable to that of the full-length MazE-mt3
